Laboratory results: patent US20250108062A1, “VITAMIN NANOCLUSTERS AS THERAPEUTIC AND NUTRACEUTIC AGENTS AND CARRIERS” (FONDAZIONE ISTITUTO ITALIANO DI TECNOLOGIA, priority 2022, published 2025)

Test system: Bone Marrow Derived Monocytes (BMDM)
Assay: MTT cell viability / toxicity on BMDMs
Conditions: 24, 48, 72 h, all tested concentrations
Protocol: After 24, 48, or 72 h of incubation, the culture medium was removed, a MTT solution was added to each well according to the manufacturer's instruction. The absorbance of formazan crystals dissolved in EtOH was quantified using a microplate spectrophotometer at a wavelength of 570 nm, using 650 nm as the reference wavelength (Tecan, Mannedorf, Swiss). The percentage of cell viability was assessed according to the following equation:
where, Abst was the absorbance of treated cells and Abs, was the absorbance of control (untreated) cells.

## C=C1CC[C@H](O)C/C1=C/C=C1\CCC[C@]2(C)[C@@H]([C@H](C)CCCC(C)C)CC[C@@H]12 [free Vitamin D3, Vitamin D3]
  cytotoxicity (MTT cell viability): do not induce a significant cytotoxicity
